Results as given in patent US3966944A, “10 (N-methyl-4-piperidylidene)-10H[1]-benzopyrano[3,2-b]-pyridine as an analgesic, anti-inflammatory and agent against type III hypersensitivity disease” (Abbott Laboratories, priority 1975, dated 1976).

Experiments:
mice = assay: Analgesic Activity - Mouse Writhing Method (0.5% acetic acid IP); format: in vivo; settings: for Ave. No. of Writhes/Mouse (±S.D.): 20 minute period, control saline 34.8 (8.8)
Description: Analgesic Activity of 10 (N-Methyl-4-Piperidylidene)-10H[1]-Benzopyrano[3,2-b]-Pyridine -- Mouse Writhing Method
Modified method of Whittle (Brit. J. Pharmacol. 1964, 22:246) -- Groups of 5 mice administered various dose-levels of the compound 30 minutes prior to the IP injection of 0.5% acetic acid (0.4 ml). Writhing counted for a 20 minute period following the acid injection.

[1] = system: Carrageenin Induced Rat Paw Edema; assay: Carrageenin Induced Rat Paw Edema; format: in vivo, male Sprague-Dawley rats; settings: for % INCREASE IN PAW SIZE OVER NORMAL: 3 hr. reading, 0.5% MC control 89.3%
Description: Carrageenin Induced Rat Paw Edema
The carrageenin induced rat paw edema test of Winter, et al. (Proc. Soc. Exp. Biol. and Med., 1962, 111:544) and modified by Van Arman, et al. (J. Pharmacol. Exp. Therap., 1965, 150:328) is used as a primary test for anti-inflammatory activity.
Groups of male Sprague-Dawley rats weighing 160-220 grams are used to compare various dose levels of the test compound to control animals. The compound is administered orally to the respective groups 1 hour prior to a sub-plantar injection into the left hind paw with 0.1 ml of a 1.5% suspension of carrageenin in saline. The paws are measured volumetrically by mercury displacement prior to (normal paw), 1.5, 3 and 5 hours after the carrageenin injection.
Activity is calculated as the percent difference (inhibition) between the increases in paw size (edema) of the test groups compared to the control groups.

[2] = system: reverse passive Arthus reaction; assay: Reverse Passive Arthus Reaction (inhibition of the inflammatory lesion area); settings: for % Inhibition of the Inflammatory Lesion Area: lesion excised 4 hours after Anti-B.S.A.

Which results are given for “10 (N-methyl-4-piperidylidene)-10H[1]-benzopyrano[3,2-b]-pyridine [A-45637]”?
Ave. No. of Writhes/Mouse (±S.D.) (mice; 10 mg/kg oral): 31.4 (16.7) Writhes/Mouse; % Inhibition (mice; 10 mg/kg oral, writhing, mice): 9.8%; Ave. No. of Writhes/Mouse (±S.D.) (mice; 20 mg/kg oral): 18.0 (8.3) Writhes/Mouse; % Inhibition (mice; 20 mg/kg oral, writhing, mice): 48.3%; Ave. No. of Writhes/Mouse (±S.D.) (mice; 40 mg/kg oral): 15.8 (8.0) Writhes/Mouse; % Inhibition (mice; 40 mg/kg oral, writhing, mice): 54.6%; Ave. No. of Writhes/Mouse (±S.D.) (mice; 80 mg/kg oral): 6.6 (4.6) Writhes/Mouse; % Inhibition (mice; 80 mg/kg oral, writhing, mice): 81.0%; ED50 (mice; P.O., mice, writhing, 95% CL (10.9-98.0)): 29.7 mg/kg; % INCREASE IN PAW SIZE OVER NORMAL ([1]; 2 mg/kg oral): 66.9%; % INHIBITION OF EDEMA (3 HR. READING) ([1]; 2 mg/kg oral, rat): 25.1%; % INCREASE IN PAW SIZE OVER NORMAL ([1]; 4 mg/kg oral): 55.3%; % INHIBITION OF EDEMA (3 HR. READING) ([1]; 4 mg/kg oral, rat): 38.1%; % INCREASE IN PAW SIZE OVER NORMAL ([1]; 8 mg/kg oral): 50.0%; % INHIBITION OF EDEMA (3 HR. READING) ([1]; 8 mg/kg oral, rat): 44.0%; % INCREASE IN PAW SIZE OVER NORMAL ([1]; 16 mg/kg oral): 33.1%; % INHIBITION OF EDEMA (3 HR. READING) ([1]; 16 mg/kg oral, rat): 62.9%; ED25 ([1]; oral, rat, carrageenin paw edema, limits in parentheses): 2.04 (0.34, 3.55); % Inhibition of the Inflammatory Lesion Area ([2]; 0.75 mg/kg PO, rat): 43.2%; % Inhibition of the Inflammatory Lesion Area ([2]; 1.5 mg/kg PO, rat): 64.4%; % Inhibition of the Inflammatory Lesion Area ([2]; 2.5 mg/kg PO, rat): 70.9%; % Inhibition of the Inflammatory Lesion Area ([2]; 5 mg/kg PO, rat): 81.2%; % Inhibition of the Inflammatory Lesion Area ([2]; 10 mg/kg PO, rat): 82.9%; Calculated ED50 value ([2]; PO, rat, printed limits (.07, 1.5)): 0.78 mg/kg

For `CN(C)CCC(c1ccc(Cl)cc1)c1ccccn1` (racemic) [chlorpheninamine, reference compound], which “activity in the reverse passive Arthus reaction” value ([2]; 10 mg/kg, P.O.) is on record?
Its value is “completely inactive”.

How did the “activity in the reverse passive Arthus reaction” value ([2]; 5 mg/kg P.O.) turn out when `CN1CCC(=C2c3ccccc3C=Cc3ccccc32)CC1` [cyproheptadine, reference compound] was run?
Its value is “completely inactive”.
